{"source": "patent US6506392B2", "about": "“Theraputic topical solution for skin and associated methods of use” (priority 2000, dated 2003)", "test_system": "skin exhibiting psoriasis", "experiment": "topical application to skin exhibiting psoriasis (Example 1)", "assay_type": "in vivo, human", "details": "one subject, treatments used before the solution", "source_text": "A further understanding of the present invention will be afforded by a consideration of the following non-limiting examples. In these examples, the “full strength” 100% solution was utilized. These examples are illustrative of the principals of the present invention and are not intended to limit the scope of the invention to the exemplary uses and formulations.\nThree subjects, two male and one […], suffering from psoriasis, applied the solution to areas on their bodies and rubbed in the solution with their fingertips several times per day or as needed. Areas of application included knees and elbows.\nIt is important to note that some of the subjects had suffered from psoriasis for an extended period of time and had tried a variety of treatments. One subject had previously utilized various tars, cortisones, temovate and methotrexate treatments."}
{"smiles": "CN(Cc1cnc2nc(N)nc(N)c2n1)c1ccc(C(=O)N[C@@H](CCC(=O)O)C(=O)O)cc1", "note": "[methotrexate]", "values": [{"measurement": "outcome of previous psoriasis treatments", "value": "without success"}]}
{"smiles": "CCC(=O)O[C@]1(C(=O)CCl)[C@@H](C)C[C@H]2[C@@H]3CCC4=CC(=O)C=C[C@]4(C)[C@@]3(F)[C@@H](O)C[C@@]21C", "note": "[temovate]", "values": [{"measurement": "outcome of previous psoriasis treatments", "value": "without success"}]}
